In US7423159B2, “Agent for preventing or treating neuropathy” (Takeda Pharmaceutical Company Limited, priority 2002, dated 2008) one finds melting point data, which are given here for 42 compounds.

Bounds are passed on as bounds.

Usually melting point stands for the temperature of the solid-liquid transition. The compound `Cn1ncc(/C=C/C(=O)Nc2ccc(Cn3nccn3)cc2)c1-c1ccc(F)cc1` [Example 196, (2E)-3-[5-(4-Fluorophenyl)-1-methyl-1H-pyrazol-4-yl]-N-[4-(2H-1,2,3-triazol-2-ylmethyl)phenyl]acrylamide] came in with a melting point of 178 to 179 °C.
The value for `CCOP(=O)(Cc1cccc(NC(=O)/C=C/c2cnn(C)c2-c2ccc(F)cc2)c1)OCC` was 170 to 172 °C.
The same measure for `CCOP(=O)(Cc1ccc(NC(=O)/C=C/c2cnn(C)c2-c2ccc(Br)cc2)cc1)OCC`: 229 to 231 °C.
The value for `Cn1ncc(/C=C/C(=O)Nc2ccc(CNC(=O)c3ccccc3)cc2)c1-c1ccc(F)cc1` [Example 142, N-[4-({(2E)-3-[5-(4-Fluorophenyl)-1-methyl-1H-pyrazol-4-yl]prop-2-enoyl}amino)benzyl]benzamide] was 250 to 251 °C.
`CCOP(=O)(Cc1ccc(NC(=O)CCc2cnn(-c3ccccc3)c2-c2ccccc2)cc1)OCC` displayed a melting point of 157 to 159 °C.
The same measure for `CCOC(=O)c1ccc(NC(=O)/C=C/c2cnn(C)c2-c2ccc(F)cc2)cc1` [Example 180, ethyl 4-({(2E)-3-[5-(4-fluorophenyl)-1-methyl-1H-pyrazol-4-yl]prop-2-enoyl}amino)benzoate]: 202 to 203 °C; for `Cc1nnc(COc2ccc(NC(=O)/C=C/c3cnn(C)c3-c3ccc(F)cc3)cc2)o1` [Example 97, (2E)-3-[5-(4-Fluorophenyl)-1-methyl-1H-pyrazol-4-yl]-N-{4-[(5-methyl-1,3,4-oxadiazol-2-yl)methoxy]phenyl}acrylamide]: 117 to 118 °C; for `CCOP(=O)(Cc1ccc(NC(=O)/C=C/c2cnn(C)c2-c2cccc3ccccc23)cc1)OCC`: 229 to 231 °C.
On to `CCOP(=O)(Cc1ccc(NC(=O)/C=C/c2c(-c3ccc(F)cc3)cnn2C)cc1)OCC`, for which the melting point is 138 to 139 °C.
The value for `COP(=O)(Cc1ccc(NC(=O)/C=C/c2snnc2-c2ccc(F)cc2)cc1)OC` was 196 to 197 °C; that for `Cn1ncc(/C=C/C(=O)Nc2ccc(C[S+]([O-])c3ccccc3)cc2)c1-c1ccc(F)cc1` (stereo not drawn) [Example 219, (2E)-3-[5-(4-Fluorophenyl)-1-methyl-1H-pyrazol-4-yl]-N-{4-[(phenylsulfinyl)methyl]phenyl}acrylamide] was 236 to 237 °C; that for `Cc1csc(Cc2ccc(NC(=O)/C=C/c3cnn(C)c3-c3ccc(F)cc3)cc2)n1` [Example 127, (2E)-3-[5-(4-Fluorophenyl)-1-methyl-1H-pyrazol-4-yl]-N-(4-[(4-methyl-1,3-thiazol-2-yl)methyl)phenyl]acrylamide] was 217 to 218 °C.
The same measure for `O=C(O)Cc1ccc(NC(=O)CCc2cnn(-c3ccccc3)c2-c2ccccc2)cc1` [Example 83, (4-{[3-(1,5-diphenyl-1H-pyrazol-4-yl)propanoyl]amino}phenyl)acetic acid]: 199 to 201 °C; for `Cn1ncc(/C=C/C(=O)Nc2ccc(Cc3nc4ccccc4[nH]3)cc2)c1-c1ccc(F)cc1` [Example 108, (2E)-N-[4-(1H-Benzimidazol-2-ylmethyl)phenyl]-3-[5-(4-fluorophenyl)-1-methyl-1H-pyrazol-4-yl]acrylamide]: greater than 300 °C.
In the case of `Cc1cn(Cc2ccc(NC(=O)/C=C/c3cnn(C)c3-c3ccc(F)cc3)cc2)cn1` [Example 202, (2E)-3-[5-(4-Fluorophenyl)-1-methyl-1H-pyrazol-4-yl]-N-{4-[(4-methyl-1H-imidazol-1-yl)methyl]phenyl}acrylamide], the melting point was 202 to 203 °C.
Take `CCc1cn(Cc2ccc(NC(=O)/C=C/c3cnn(C)c3-c3ccc(F)cc3)cc2)cn1` [Example 171, (2E)-N-{4-[(4-Ethyl-1H-imidazol-1-yl)methyl]phenyl}-3-[5-(4-fluorophenyl)-1-methyl-1H-pyrazol-4-yl]acrylamide]: the melting point lay within 224 to 226 °C.
The same measure for `CCOP(=O)(OCC)C(O)c1ccc(NC(=O)/C=C/c2cnn(C)c2-c2ccc(F)cc2)cc1` (stereo not drawn): 194 to 195 °C.
The value for `Cc1cc2ncn(Cc3ccc(NC(=O)/C=C/c4cnn(C)c4-c4ccc(F)cc4)cc3)c2cc1C` [Example 172, (2E)-N-(4-[(5,6-Dimethyl-1H-benzimidazol-1-yl)methyl]phenyl}-3-[5-(4-fluorophenyl)-1-methyl-1H-pyrazol-4-yl]acrylamide] was 279 to 280 °C; that for `CCOP(=O)(OCC)C(OC)c1ccc(NC(=O)/C=C/c2cnn(C)c2-c2ccc(F)cc2)cc1` (stereo not drawn) was 200 to 201 °C.
The same measure for `CCOP(=O)(Cc1ccc(NC(=O)/C=C/c2cnn(C)c2-c2cccc(F)c2)cc1)OCC`: 205 to 206 °C; for `CCOC(=O)Cc1ccc(NC(=O)/C=C/c2cnn(C)c2-c2ccc(F)cc2)cc1` [Example 109, ethyl [4-({(2E)-3-[5-(4-fluorophenyl)-1-methyl-1H-pyrazol-4-yl]prop-2-enoyl}amino)phenyl]acetate]: 177 to 178 °C.
For `Cn1ncc(/C=C/C(=O)Nc2ccc(OCc3cscn3)cc2)c1-c1ccc(F)cc1` [Example 92, (2E)-3-[5-(4-Fluorophenyl)-1-methyl-1H-pyrazol-4-yl]-N-[4-(1,3-thiazol-4-ylmethoxy)phenyl]acrylamide], the melting point fell in the range of 171 to 172 °C.
The same measure for `CCOP(=O)(Cc1ccc(NC(=O)/C=C/c2c(C)nn(C)c2-c2ccc(F)cc2)cc1)OCC`: 159 to 160 °C; for `COP(=O)(Cc1ccc(NC(=O)/C=C/c2cnn(C)c2-c2ccco2)cc1)OC`: 201 to 202 °C.
The value for `Cn1ncc(/C=C/C(=O)Nc2ccc(CS(=O)(=O)c3ccccc3)cc2)c1-c1ccc(F)cc1` [Example 225, (2E)-3-[5-(4-Fluorophenyl)-1-methyl-1H-pyrazol-4-yl]-N-{4-[(phenylsulfonyl)methyl]phenyl}acrylamide] was 223 to 224 °C; that for `CCOP(=O)(Cc1ccc(NC(=O)/C=C/c2nncn2-c2ccc(F)cc2)cc1)OCC` was 217 to 218 °C; that for `CCOC(=O)CCC(=O)NCc1ccc(NC(=O)/C=C/c2cnn(C)c2-c2ccc(F)cc2)cc1` [Example 188, Ethyl 4-{[4-({(2E)-3-[5-(4-fluorophenyl)-1-methyl-1H-pyrazol-4-yl]prop-2-enoyl}amino)benzyl]amino}-4-oxobutanoate] was 195 to 197 °C.
The value for `Cn1ncc(/C=C/C(=O)Nc2ccc(CC(=O)O)cc2)c1-c1ccc(F)cc1` [Example 133, [4-({(2E)-3-[5-(4-fluorophenyl)-1-methyl-1H-pyrazol-4-yl]prop-2-enoyl]amino}phenyl]acetic acid] was 245 to 246 °C; that for `Cc1cncn1Cc1ccc(NC(=O)/C=C/c2cnn(C)c2-c2ccc(F)cc2)cc1` [Example 201, (2E)-3-[5-(4-Fluorophenyl)-1-methyl-1H-pyrazol-4-yl]-N-{4-[(5-methyl-1H-imidazol-1-yl)methyl]phenyl}acrylamide] was 260 to 261 °C.
Turning to `Cn1ncc(/C=C/C(=O)Nc2ccc(CSc3c[nH]nn3)cc2)c1-c1ccc(F)cc1` [Example 213, (2E)-3-[5-(4-Fluorophenyl)-1-methyl-1H-pyrazol-4-yl]-N-(4-[(1H-1,2,3-triazol-4-ylthio)methyl)phenyl]acrylamide], the melting point fell in the range of 182 to 183 °C.
`CCc1nc(CCc2ccc(NC(=O)/C=C/c3cnn(C)c3-c3ccc(F)cc3)cc2)cs1` [Example 90, (2E)-N-{4-[2-(2-Ethyl-1,3-thiazol-4-yl)ethyl]phenyl}-3-[5-(4-fluorophenyl)-1-methyl-1H-pyrazol-4-yl]acrylamide] returned a melting point of 190 to 191 °C.
With `Cc1coc(Cc2ccc(NC(=O)/C=C/c3cnn(C)c3-c3ccc(F)cc3)cc2)n1` [Example 95, (2E)-3-[5-(4-Fluorophenyl)-1-methyl-1H-pyrazol-4-yl]-N-{4-[(4-methyl-1,3-oxazol-2-yl)methyl]phenyl}acrylamide], the melting point lay in the range of 220 to 221 °C.
The same measure for `COc1ccc(-c2c(/C=C/C(=O)Nc3ccc(CP(=O)(OC)OC)cc3)cnn2C)cc1`: 199 to 200 °C; for `Cn1ncc(/C=C/C(=O)Nc2ccc(CN)cc2)c1-c1ccc(F)cc1` [Example 137, (2E)-N-[4-(aminomethyl)phenyl]-3-[5-(4-fluorophenyl)-1-methyl-1H-pyrazol-4-yl]acrylamide]: 201 to 202 °C.
The same measure for `CCOP(=O)(CCc1ccc(NC(=O)/C=C/c2cnn(C)c2-c2ccc(F)cc2)cc1)OCC`: 157 to 158 °C.
The value for `CCOP(=O)(Cc1ccccc1NC(=O)/C=C/c1cnn(C)c1-c1ccc(F)cc1)OCC` was 168 to 169 °C; that for `CSCc1ccc(NC(=O)/C=C/c2cnn(C)c2-c2ccc(SC)cc2)cc1` [Example 207, (2E)-3-{1-methyl-5-[4-(methylthio)phenyl]-1H-pyrazol-4-yl}-N-{4-[(methylthio)methyl]phenyl}acrylamide] was 145 to 146 °C; that for `Cn1ncc(/C=C/C(=O)Nc2ccc(CNC(=O)OC(C)(C)C)cc2)c1-c1ccc(F)cc1` [Example 170, tert-Butyl 4-({(2E)-3-[5-(4-fluorophenyl)-1-methyl-1H-pyrazol-4-yl]prop-2-enoyl]amino)benzylcarbamate] was 222 to 223 °C.
For the compound `Cn1ncc(/C=C/C(=O)Nc2ccc(Cc3nc(C(=O)O)cs3)cc2)c1-c1ccc(F)cc1` [Example 131, 2-[4-({(2E)-3-[5-(4-fluorophenyl)-1-methyl-1H-pyrazol-4-yl]prop-2-enoyl}amino)benzyl]-1,3-thiazole-4-carboxylic acid], the melting point is 226 to 227 °C.
The value for `Cn1ncc(/C=C/C(=O)Nc2ccc(CSC(C)(C)C)cc2)c1-c1ccc(F)cc1` [Example 211, (2E)-N-{4-[(tert-Butylthio)methyl]phenyl}-3-[5-(4-fluorophenyl)-1-methyl-1H-pyrazol-4-yl]acrylamide] was 166 to 168 °C; that for `Cn1ncc(/C=C/C(=O)Nc2ccc(Cc3nc4ccccc4o3)cc2)c1-c1ccc(F)cc1` [Example 107, (2E)-N-[4-(1,3-Benzoxazol-2-ylmethyl)phenyl]-3-[5-(4-fluorophenyl)-1-methyl-1H-pyrazol-4-yl]acrylamide] was 195 to 196 °C; that for `CCOP(=O)(Cc1ccc(NC(=O)/C=C/c2cnn(CC)c2-c2ccc(F)cc2)cc1)OCC` was 226 to 227 °C.
